Data on 2 compounds can be found in patent publication US4303637A, “Medication indicated for ocular hypertension” (priority 1980, dated 1981).

The subject of data set [1] is intraocular pressure associated with glaucoma. The conditions noted are these: liquid eyedrops; cited from earlier work.
A short description of data set [2]: Solubility in distilled water. The conditions noted are these: distilled water at 25° C. Type of data set: physicochemical. The text has this:
(§1) The product is removed from the internal mixer and passed through the cooled rolls of a 3×8 inch roller mill to form a 0.8 mm thick film, with portions of the film compression molded between heated plattens of a hydraulic press to form 0.4 mm thick film. The film is cooled, and elliptical ocular shaped devices are punched from the dry film.

A short description of data set [3]: Osmotic pressure of the solute (vapor pressure osmometer). Type of data set: physicochemical.
From the text: The osmotic pressure, ATM, of the solute can be measured in a commercially available osmometer that measures the vapor pressure difference between pure water and a solution containing a solute to be analyzed, and according to standard thermodynamic principles, the vapor pressure ratio is converted into an osmotic pressure. An osmometer that can be used for the present measurements is the Model 302B, Vapor Pressure Osmometer, manufactured by the Hewlett Packark Company, Avondale, Pennsylvania.
as §1

Take `CC(C)(C)NC[C@H](O)COc1nsnc1N1CCOCC1` [timolol]: the “lowering of intraocular pressure” value in data set [1] was “lowering intraocular pressure associated with glaucoma”. `COCCc1ccc(OCC(O)CNC(C)C)cc1.O=C(O)C(O)C(O)C(=O)O` (racemic) [(±)-1-[4-(2-methoxyethyl)-phenoxy]-3-[(1-methylethyl)amino]-2-propanol tartrate]: the solubility in data set [2] worked out at 860 mg/mL. Moreover, the osmotic pressure in data set [3] is reported as 210 atm.

Broadly, the solubility is the dissolved amount per volume that the medium holds.
